The values below come from patent US10718770B2, “Methods for screening compounds for treating or preventing a viral infection or a virus-related condition” (ABIVAX, priority 2015, dated 2020).

Molecules are shown by their SMILES.

The test has as its system YU2 HIV-1 virus. As to the kind of experiment: Humanized mice infected with YU2 HIV-1 virus, viral load. The format is in vivo, mouse (NSG humanized). The note with it: after 30 days of 40 mg/kg daily. The procedure:
FIG. 7. Efficacy of Compound 1 to inhibit viral replication in humanized mice. A) Reconstituted SCID mice were infected with JRCSF HIV-1 strain by intraperitoneal injection. Control group received by gavage labrafil and 5% DMSO (n=15) and treated group 20 mg/kg b.i.d of Compound 1 in labrafil and 5% DMSO (n=14) for 15 days. Two independent experiments were performed with 5 and 10 reconstituted mice for each group. Viral load was assessed by measuring viral RNA using the Amplicor HIV-1 Monitor from Roche. B) FACS analysis was performed on peritoneal wash at day 15 post-treatment to assess the CD8/CD4 ratio. C) Engrafted NSG humanized mice were treated by oral gavage with Compound 1 at either 20 mg or 40 mg/kg once a day for 30 days and indicated lymphocyte populations (CD45+; CD4+ and CD8+) were monitored by FACS analysis. […] Viral load was assessed by measuring viral RNA using the Amplicor HIV-1 Monitor from Roche. […]
Briefly, newborn (<5 days old) NSG mice received sub-lethal (1 Gy) total body irradiation with a Cs source, and then received […] transduced or untransduced CD34+ human HSCs using a 50 μl Hamilton syringe via the intrahepatic (i.h.) route. […] Mice were monitored three times a week for symptoms or signs of adverse events, according to a standard score sheet. […]

For the compound `FC(F)(F)Oc1ccc(Nc2ccc3cccc(Cl)c3n2)cc1` [Compound 1, 8-chloro-N-(4-(trifluoromethoxy)phenyl)quinolin-2-amine], the “time the viral load remained low after treatment termination” value is recorded as “at least 50 days”.
